# According to patent publication US20060229364A1, “Antiviral compositions and methods of use” (3M Innovative Properties Company, priority 2005, published 2006):
# Tested on: Type 1 herpes virus
# Assay: Another mouse study with neat ester (Example 4), treatment from 24 hours post-virus inoculum
# Format: in vivo, mice
# Details: neat composition applied 24 hours post-virus inoculum, 3 times daily for 5 days
# Text: Each lesion was assigned a score ranging from 0 (normal skin) to 4 (maximal lesion intensity) defined as “Lesion score”, and two measurements, a vertical length and a horizontal length, were taken of each lesion daily from days 1 through 10. These measurements were multiplied together and the “square area” recorded, defined as “Lesion Size”. The lesion scoring was done by technicians who are unaware of which group of animals they are examining in order to eliminate bias. The occurrence of new, satellite, lesions (e.g., another lesion located anywhere other than the site of the intial lesion) were also noted during this 10-day period. The mean of the lesions score and the lesions size was calculated based on the average of the measurements taken on the eight mice.
# Another mouse study was performed using propylene glycol monolaurate (Capmul PG-12) in a neat composition. The ester was applied 24 hours post-virus inoculum 3 times daily for 5 days. […] The mean day 7 lesion size was 3.1 mm2 compared to 64.4 mm2 for petrolatum vehicle control. The day 7 mean lesion score was 0.2 compared to 1.5 for a control sample containing petrolatum without an antimicrobial.
substance,measurement,value
propylene glycol monolaurate,day 7 mean lesion score,0.2
same,mean day 7 lesion size,3.1 mm2
same,reduction in lesion score and size compared to a placebo ointment (in words),statistically significant reduction
